pIC50: −log10 of the molar value.
How the values were obtained:
[1] = molecular target: His-tagged human recombinant kinase full-length Akt2 activated by PDK1 (Homo sapiens (Human), UniProt P31751); assay: Akt2 kinase assay (Akt2 TR-FRET assay, Biological Assay 2.0); format: biochemical; details: 10 μM ATP, 1 μM biotinylated peptide substrate, 60 min at 22° C.
Method in brief: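 Compound was pre-incubated with enzyme (~0.2 ng/µl final) for 15 min at 22 °C in Tris pH 7.5, 5 mM MgCl2, then reacted 60 min with 10 µM ATP and 1 µM biotinylated peptide. Phosphopeptide was detected by TR-FRET (665/622 nm ratio). Data were normalised to no-inhibitor (0%) and no-enzyme (100%) controls.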

[2] = molecular target: His-tagged human recombinant kinase full-length Akt1 (Homo sapiens (Human), UniProt P31749); assay: Akt1 kinase assay (Akt1 TR-FRET assay, Biological Assay 1.0); format: biochemical; details: 10 μM ATP, 1 μM biotinylated peptide substrate, 60 min at 22° C.
His-tagged human recombinant kinase full-length Akt1, sequence (P31749 whole entry): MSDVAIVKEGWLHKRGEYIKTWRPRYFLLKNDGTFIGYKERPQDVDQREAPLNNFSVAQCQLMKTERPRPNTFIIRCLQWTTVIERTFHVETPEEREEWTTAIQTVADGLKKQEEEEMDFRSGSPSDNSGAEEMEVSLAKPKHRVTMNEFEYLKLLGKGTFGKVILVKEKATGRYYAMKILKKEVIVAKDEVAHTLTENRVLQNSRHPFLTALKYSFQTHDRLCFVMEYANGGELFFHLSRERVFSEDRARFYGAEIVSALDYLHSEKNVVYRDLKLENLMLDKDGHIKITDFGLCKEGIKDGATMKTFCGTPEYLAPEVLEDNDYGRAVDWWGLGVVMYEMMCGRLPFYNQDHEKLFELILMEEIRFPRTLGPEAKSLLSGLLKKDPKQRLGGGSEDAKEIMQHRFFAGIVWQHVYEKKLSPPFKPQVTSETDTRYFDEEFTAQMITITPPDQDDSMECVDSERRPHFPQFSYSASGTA
Method in brief: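 Insect-cell-expressed full-length His-Akt1 (~0.05 ng/μl) preincubated 15 min with compound, then reacted 60 min at 22 °C with 10 μM ATP and 1 μM biotinylated peptide (final), pH 7.5. Phosphopeptide detected by HTRF (665/620 nm ratio). Data normalised to no-inhibitor and no-enzyme controls.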

His-tagged human recombinant kinase full-length Akt2 activated by PDK1, sequence (P31751 whole entry): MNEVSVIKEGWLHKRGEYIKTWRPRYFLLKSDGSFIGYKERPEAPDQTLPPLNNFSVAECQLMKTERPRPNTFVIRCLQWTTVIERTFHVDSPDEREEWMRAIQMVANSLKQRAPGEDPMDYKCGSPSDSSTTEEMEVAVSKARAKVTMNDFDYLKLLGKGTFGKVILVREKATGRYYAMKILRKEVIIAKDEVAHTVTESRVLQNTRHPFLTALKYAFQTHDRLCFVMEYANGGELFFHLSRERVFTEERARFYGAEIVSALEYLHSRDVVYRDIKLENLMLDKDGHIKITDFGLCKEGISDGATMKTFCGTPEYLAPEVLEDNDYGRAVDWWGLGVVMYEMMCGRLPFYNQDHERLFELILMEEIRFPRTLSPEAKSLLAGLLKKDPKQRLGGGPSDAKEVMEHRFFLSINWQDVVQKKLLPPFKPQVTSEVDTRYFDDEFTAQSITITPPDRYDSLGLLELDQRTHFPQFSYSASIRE

| Compound | melting point [°C] | pIC50 [1] | pIC50 [2] |
| --- | --- | --- | --- |
| Cc1nc2nc(-c3ccc(CN4CC(c5n[nH]c(-c6ccccn6)n5)C4)cc3)c(-c3ccccc3)c(NC(C)C)n2n1 [Example 45.2, isopropyl-(2-methyl-6-phenyl-5-{4-[3-(5-pyridin-2-yl-1H-[1,2,4]triazol-3-yl)-azetidin-1-ylmethyl]-phenyl}-[1,2,4]triazolo[1,5-a]pyrimidin-7-yl)-amine] | 176.8 | – | – |
| Cc1cn2cc(-c3ccccc3)c(-c3ccc(CN4CC(c5n[nH]c(-c6ccccn6)n5)C4)cc3)nc2n1 [Example 56.0, 2-methyl-6-phenyl-7-{4-{3-[5-(pyridine-2-yl)-1H-[1,2,4]triazole-3-yl)-azetidine-1-ylmethyl]-phenyl}-imidazo[1,2-a]pyrimidine] | – | 7.33 | 8.00 |
| COC(=O)c1cnn2cc(-c3ccc(F)cc3F)c(-c3ccc(CN4CC(c5n[nH]c(-c6ccccn6)n5)C4)cc3)nc12 [Example 32.0, 6-(2,4-difluorophenyl)-5-(4-{3-[5-(pyridine-2-yl)-1H-[1,2,4]triazole-3-yl]-azetidine-1-ylmethyl}-phenyl)-pyrazolo[1,5-a]pyrimidine-3-carboxylic acid methyl ester] | – | 6.67 | 8.15 |
| COC(=O)c1cn2cc(-c3ccccc3)c(-c3ccc(CN4CC(c5n[nH]c(-c6ccccn6)n5)C4)cc3)nc2n1 [Example 74.1, 6-phenyl-7-{4-[3-[5-pyridine-2-yl-1H-[1,2,4]triazole-3-yl)azetidine-1-ylmethyl]-phenyl}-imidazo[1,2-a]pyrimidine-2-carboxylic acid methyl ester] | – | 7.77 | 8.00 |

— US8957064B2, “Fused pyrimidines” (Bayer Intellectual Property GmbH, priority 2009, dated 2015)
